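Where inhibition never reached the appropriate level, the endpoint shown equals the highest concentration tested. Otherwise, values were interpolated linearly from a five-concentration, 48-hour dose response in 96-well plates. GI50 = concentration required for 50% inhibition of growth. TGI: total growth inhibition.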
How the values were obtained:
Assay in all cases: growth of human tumour cells (NCI), 48 h
[1] = test system: 786-0 renal
[2] = test system: A498 renal
[3] = test system: A549 NSCLC
[4] = test system: ACHN renal
[5] = test system: BT-549 breast
[6] = test system: CAKI-1 renal
[7] = test system: CCRF-CEM leukemia
[8] = test system: COLO 205 colon
[9] = test system: DU-145 prostate
[10] = test system: EKVX NSCLC
[11] = test system: HCC-2998 colon
[12] = test system: HCT-116 colon
[13] = test system: HCT-15 colon
[14] = test system: HL-60(TB) leukemia
[15] = test system: HOP-62 NSCLC
[16] = test system: HOP-92 NSCLC
[17] = test system: HS 578T breast
[18] = test system: HT29 colon
[19] = test system: IGROV1 ovarian
[20] = test system: K-562 leukemia
[21] = test system: KM12 colon
[22] = test system: LOX IMVI melanoma
[23] = test system: M14 melanoma
[24] = test system: MALME-3M melanoma
[25] = test system: MCF7 breast
[26] = test system: MDA-MB-231 breast
[27] = test system: MDA-MB-435
[28] = test system: MOLT-4 leukemia
[29] = test system: NCI-H226 lung
[30] = test system: NCI-H23 lung
[31] = test system: NCI-H460 lung
[32] = test system: NCI-H522 lung
[33] = test system: NCI/ADR-RES ovarian
[34] = test system: OVCAR-3 ovarian
[35] = test system: OVCAR-4 ovarian
[36] = test system: OVCAR-5 ovarian
[37] = test system: OVCAR-8 ovarian
[38] = test system: PC-3 prostate
[39] = test system: RPMI-8226 leukemia
[40] = test system: RXF 393 renal
[41] = test system: SF-268 CNS
[42] = test system: SF-295 CNS
[43] = test system: SF-539 CNS
[44] = test system: SK-MEL-2 melanoma
[45] = test system: SK-MEL-28 melanoma
[46] = test system: SK-MEL-5 melanoma
[47] = test system: SK-OV-3 ovarian
[48] = test system: SN12C renal
[49] = test system: SNB-19 CNS
[50] = test system: SNB-75 CNS
[51] = test system: SR leukemia
[52] = test system: SW-620 colon
[53] = test system: T-47D breast
[54] = test system: TK-10 renal
[55] = test system: U251 CNS
[56] = test system: UACC-257 melanoma
[57] = test system: UACC-62 melanoma
[58] = test system: UO-31 renal

CCCCC(=O)N/N=C/c1c(O)ccc2ccccc12
GI50 [1]: 3.65 µM
TGI [1]: > 59.2 µM
GI50 [2]: 7.71 µM
TGI [2]: 44.4 µM
GI50 [3]: 4.47 µM
TGI [3]: > 92.1 µM
GI50 [4]: 1.38 µM
TGI [4]: > 88.6 µM
GI50 [5]: 0.537 µM
TGI [5]: 6.6 µM
TGI [6]: 2.26 µM
GI50 [7]: 0.267 µM
TGI [7]: 1.28 µM
GI50 [8]: 2.61 µM
TGI [8]: > 27.6 µM
GI50 [9]: 2.7 µM
TGI [9]: > 100 µM
GI50 [10]: 1.75 µM
TGI [10]: 7.92 µM
GI50 [11]: 3.88 µM
TGI [11]: > 100 µM
GI50 [12]: 1.32 µM
TGI [12]: > 29.6 µM
GI50 [13]: 0.532 µM
TGI [13]: > 100 µM
GI50 [14]: 0.452 µM
GI50 [15]: 7.95 µM
TGI [15]: > 100 µM
GI50 [16]: 2.01 µM
TGI [16]: > 84.5 µM
GI50 [17]: 6.54 µM
TGI [17]: > 100 µM
GI50 [18]: 27.5 µM
TGI [18]: > 100 µM
GI50 [19]: 0.65 µM
TGI [19]: 7.12 µM
GI50 [20]: 1.89 µM
TGI [20]: > 100 µM
GI50 [21]: 2.28 µM
TGI [21]: > 100 µM
GI50 [22]: 1.15 µM
TGI [22]: > 31.8 µM
GI50 [23]: 1.82 µM
TGI [23]: 14.6 µM
GI50 [24]: 3.06 µM
TGI [24]: 20.3 µM
GI50 [25]: 2.09 µM
TGI [25]: 15.8 µM
GI50 [26]: 3.51 µM
TGI [26]: > 94.8 µM
GI50 [27]: 4.37 µM
TGI [27]: > 100 µM
GI50 [28]: 0.349 µM
GI50 [29]: 13.7 µM
TGI [29]: > 70.4 µM
GI50 [30]: 4.14 µM
TGI [30]: > 100 µM
GI50 [31]: 1.36 µM
TGI [31]: > 100 µM
GI50 [32]: 1.77 µM
TGI [32]: 10.2 µM
GI50 [33]: 1.68 µM
TGI [33]: > 30.2 µM
GI50 [34]: 0.423 µM
TGI [34]: 9.37 µM
GI50 [35]: 1.47 µM
TGI [35]: > 33.2 µM
GI50 [36]: 6.97 µM
TGI [36]: > 100 µM
GI50 [37]: 2.78 µM
TGI [37]: > 100 µM
GI50 [38]: 0.953 µM
TGI [38]: > 57.5 µM
GI50 [39]: 0.247 µM
TGI [39]: 1.57 µM
GI50 [40]: 2.01 µM
TGI [40]: 15.9 µM
GI50 [41]: 0.874 µM
TGI [41]: > 75 µM
GI50 [42]: 1.83 µM
TGI [42]: 16.5 µM
GI50 [43]: 2.8 µM
TGI [43]: > 44.9 µM
GI50 [44]: 3.67 µM
TGI [44]: > 23.7 µM
GI50 [45]: 2.16 µM
TGI [45]: > 52.2 µM
GI50 [46]: 1.84 µM
TGI [46]: 11.4 µM
GI50 [47]: 3.04 µM
TGI [47]: > 100 µM
GI50 [48]: 5.44 µM
TGI [48]: > 100 µM
GI50 [49]: 4.26 µM
TGI [49]: > 100 µM
GI50 [50]: 1.57 µM
TGI [50]: > 100 µM
GI50 [51]: 0.45 µM
TGI [51]: 3.57 µM
GI50 [52]: 3.54 µM
TGI [52]: > 100 µM
GI50 [53]: 3.03 µM
TGI [53]: > 100 µM
GI50 [54]: 1.82 µM
TGI [54]: > 24.3 µM
GI50 [55]: 1.6 µM
TGI [55]: > 100 µM
GI50 [56]: 3 µM
TGI [56]: > 24.6 µM
GI50 [57]: 2.3 µM
TGI [57]: 14.2 µM
GI50 [58]: 1.87 µM
TGI [58]: 28 µM

From PubChem BioAssay (NCI)
